Marks after values point to notes of the source that are not given here.
Experiments:
[1] = system: AChE isolated from rat cortex homogenate; conditions: cited from earlier work
[2] = system: BChE from rat serum; conditions: read-out: BChE IC50 ± SEM; cited from earlier work
[3] = printed in DPPH EC50 column; cited from earlier work
[4] = DPPH antioxidant assay; conditions: mean of at least three experiments; 30 min, methanol
From the text: The free phenolic group of 1 is presumably able to easily undergo keto-enol tautomerism which has previously been postulated to be responsible for radical scavenging. Within the family of 6-Cl-THA-scutellarin hybrids, all the phenolic hydroxyls of scutellarin moiety are hindered by methyl containing methoxy groups and thus unable to exert such an effect under in vitro conditions. However, the antioxidant activity of K1383–K1389 in vivo may occur due to metabolism of the compound whereby demethylation of one or more methoxy groups can take place. This is known to be the case of 7-methoxytacrine and its major metabolite found in vivo, 7-hydroxytacrine.
DPPH, methanol, and Trolox (as reference standard) were purchased from Sigma-Aldrich. Polystyrene Nunc 96-well microplates with flat bottom shape (Thermo Fisher Scientific) were used for measuring purposes. All of the assays were carried out in methanol. DPPH solution was prepared at 0.2 mM concentration. […] The reaction time constituted 30 min. The antioxidant activity was determined by measuring the […] in absorbance at 517 nm at laboratory temperature using Synergy 2 multimode microplate reader. Each concentration was tested in triplicate. The software GraphPad Prism version 5 for Windows was used for statistical data evaluation.

[5] = system: HepG2 cells; experiment: Hepatotoxicity on HepG2 cells, MTT assay; type: cell-based; conditions: for IC50: Homo sapiens, HepG2, MTT, 24 h incubation, mean ± SEM of three independent experiments; for cytotoxicity compared to reference 6-Cl-THA: HepG2, 24 h incubation
Description: Hepatotoxicity of tested compounds was evaluated using the HepG2 cell line originally from human liver hepatocellular carcinoma (ATCC, Manassas, VA, USA). These cells were plated at density 17 × 10^3 per well in a 96-well plate in Dulbecco’s Modified Eagle’s Medium (DMEM; Gibco, Langley, OK, USA) with 10% FBS (Gibco) and were left to attach overnight. […] Stock solutons of tested compounds were prepared in DMSO (Sigma Aldrich, Prague, Czech Republic) and then diluted in DMEM medium. […] Subsequently, the medium was aspirated and 100 μL MTT solution (0.5 mg/mL) in serum-free DMEM medium was added to each well. Cells were then incubated for 1 h. The medium was then discarded and purple crystals of MTT formazan were dissolved in 100 μL DMSO under shaking. The absorbance was measured with a microplate reader (BioTek) at a minimum wavelength of 570 nm. The IC50 values were calculated using four parametric nonlinear regression with statistic software GraphPad Prism. Data were obtained from three independent experiments performed in triplicates.

[6] = PAMPA-BBB permeation assay; type: in vitro ADME; conditions: for Prediction of BBB penetration: PAMPA-BBB class; for Papp at 100 μM / BBB crossing prediction: PAMPA-BBB; for Papp at 100 μM: PBS pH 7.4, 100 μM donor, mean ± SD of three independent experiments, read-out: Pe; for BBB crossing prediction: passive diffusion model
Description: The parallel artificial membrane permeation assay (PAMPA) has been used based on reported protocol. The filter membrane of the donor plate was coated with PBL (Polar Brain Lipid, Avanti, Alabaster, AL, USA) in dodecane (4 μL of 20 mg/mL PBL in dodecane) and the acceptor well was filled with 300 μL of PBS pH 7.4 buffer (VD). Tested compounds were dissolved first in DMSO and then diluted with PBS pH 7.4 to reach the final concentration 100 μM in the donor well. […] 300 μL of the donor solution was added to the donor wells (VA) and the donor filter plate was carefully put on the acceptor plate so that coated membrane was “in touch” with both donor solution and acceptor buffer. Test compound diffused from the donor well through the lipid membrane (Area = 0.28 cm^2) to the acceptor well. The concentration of the drug in both donor and the acceptor wells was assessed after 3, 4, 5 and 6 h of incubation in quadruplicate using the Synergy HT UV plate reader at the maximum absorption wavelength of each compound. Concentration of the compounds was calculated from the standard curve and expressed as the permeability (Pe) according to Equation (2): (2) logPe=log {C×−ln(1−[drug]acceptor/[drug]equilibrium)} where C = (VD×VA/(VD+VA)×Area×time)

[7] = target: T1, human acetylcholinesterase (hAChE) (Homo sapiens, UniProt P22303); experiment: biochemical; conditions: AChE from human erythrocytes; mean of three independent measurements ± SEM
T1 construct: Human erythrocyte hemolyzate, prepared from blood samples, was applied as a source of AChE (EC 3.1.1.7); from tissue; host or cells: human erythrocytes (hemolyzate from blood of healthy volunteers)
T1 sequence (P22303 32-617 isoform P22303-2 limits assumed): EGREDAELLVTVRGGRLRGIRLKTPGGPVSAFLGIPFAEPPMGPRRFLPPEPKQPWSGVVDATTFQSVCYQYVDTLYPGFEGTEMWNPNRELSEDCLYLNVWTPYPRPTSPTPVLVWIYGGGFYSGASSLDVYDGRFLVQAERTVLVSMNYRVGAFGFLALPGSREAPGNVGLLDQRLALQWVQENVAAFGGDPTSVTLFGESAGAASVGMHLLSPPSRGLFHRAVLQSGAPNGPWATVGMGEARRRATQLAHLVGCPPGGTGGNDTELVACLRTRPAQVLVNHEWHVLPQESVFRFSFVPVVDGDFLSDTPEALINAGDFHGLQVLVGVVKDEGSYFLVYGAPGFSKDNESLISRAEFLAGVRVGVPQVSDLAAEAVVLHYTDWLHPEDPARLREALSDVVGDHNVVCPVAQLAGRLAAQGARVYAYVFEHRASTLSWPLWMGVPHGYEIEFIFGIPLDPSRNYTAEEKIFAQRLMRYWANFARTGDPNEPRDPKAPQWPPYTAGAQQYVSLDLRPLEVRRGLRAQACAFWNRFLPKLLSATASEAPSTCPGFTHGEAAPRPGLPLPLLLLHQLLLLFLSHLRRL
Description: (§1) Human erythrocyte hemolyzate, prepared from blood samples, was applied as a source of AChE (EC 3.1.1.7). […] The erythrocytes were washed three times with phosphate buffer (PB; 0.1 M, pH 7.4) and then hemolyzed in PB (0.01 M, Ph 7.4) in ration 1:10 (w/w), frozen and kept under −80 °C before use. Human plasma BChE (EC 3.1.1.8), 5,5′-dithiobis(2-nitrobenzoic acid) (Ellman’s reagent, DTNB), phosphate buffer solution (PBS, pH 7.4), acetylthiocholine iodide (ATCh), and butyrylthiocholine (BTCh) were purchased from Sigma-Aldrich. Polystyrene Nunc 96-well microplates with flat bottom shape (ThermoFisher Scientific, Bremen, Germany) were used for the measuring purposes. All of the assays were carried out in 0.1 M KH2PO4/K2HPO4 buffer, pH 7.4. […] The assay medium (100 μL) consisted of 40 μL of 0.1 M PBS (pH = 7.4), 20 μL of 0.01 M DTNB, 10 μL of cholinesterase, 10 µL of tested compound and 20 μL of 0.01 M substrate (ATCh or BTCh iodide solution). Assayed solutions of target compounds (10 μL, 10^−^3–10^−^9 M) were preincubated with enzyme for 5 min. The reaction was initiated by addition of 20 μL of substrate. […] Each concentration was assayed in triplicate. Percentage of inhibition (I) was calculated from the measured data as follows Equation (1): (1) I=(1−ΔAi/ΔA0)×100 [%]
(§2) ΔAi indicates absorbance change provided by cholinesterase exposed to tested compound. ΔA0 indicates absorbance change caused by intact cholinesterase, where phosphate bufffer was applied in the same was as the anticholinesterase compound. […] The IC50 values are expressed as a mean ± SEM.

[8] = target: T2, human butyrylcholinesterase (hBChE) (Homo sapiens, UniProt P06276); experiment: biochemical; conditions: BChE from human plasma; mean of three independent measurements ± SEM
T2 construct: Human plasma BChE (EC 3.1.1.8); purchased Sigma-Aldrich; host or cells: human plasma
T2 sequence (P06276 29-602): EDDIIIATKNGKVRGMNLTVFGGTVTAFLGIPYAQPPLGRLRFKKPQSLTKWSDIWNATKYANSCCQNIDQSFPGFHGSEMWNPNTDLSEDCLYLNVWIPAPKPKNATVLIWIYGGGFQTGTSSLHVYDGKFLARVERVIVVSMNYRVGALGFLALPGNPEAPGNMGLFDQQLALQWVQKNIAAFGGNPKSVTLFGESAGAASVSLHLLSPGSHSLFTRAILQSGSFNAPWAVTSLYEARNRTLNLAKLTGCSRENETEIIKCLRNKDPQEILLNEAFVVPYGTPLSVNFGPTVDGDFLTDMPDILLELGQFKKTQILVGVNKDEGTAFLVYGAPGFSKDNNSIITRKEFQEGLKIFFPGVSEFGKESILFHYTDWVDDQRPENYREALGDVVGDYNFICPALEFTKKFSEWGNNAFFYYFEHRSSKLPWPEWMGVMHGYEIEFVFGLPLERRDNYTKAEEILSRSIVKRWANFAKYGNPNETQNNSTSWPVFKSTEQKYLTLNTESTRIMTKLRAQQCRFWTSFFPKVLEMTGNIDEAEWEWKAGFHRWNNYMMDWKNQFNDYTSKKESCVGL
From the text: It is well established that the activity of AChE decreases during the course of AD, while that of BChE increases. Several reports indicate the ability of BChE to compensate the lack of AChE thus continuing in regulation of cholinergic transmission. Therefore, the agents with affinity to both cholinesterases could play a more profound role in the AD therapy.
as §1, §2

[9] = target: T3, hAChE (Homo sapiens, UniProt P22303); experiment: Kinetic study of AChE inhibition (Lineweaver-Burk, nonlinear regression); type: biochemical
T3 construct: Human erythrocyte hemolyzate, prepared from blood samples, was applied as a source of AChE (EC 3.1.1.7); from tissue; host or cells: human erythrocytes (hemolyzate from blood of healthy volunteers)
T3 sequence (P22303 32-617 isoform P22303-2 limits assumed): as the sequence (P22303 32-617 isoform P22303-2 limits assumed) above
Description: To determine the interaction of K1383 with hAChE, a kinetic study was carried out. Enzyme rate curves were obtained at several substrate concentrations of the inhibitor.
Inhibitors bind reversibly to both free AChE and AChE-substrate complex with equal affinity (Ki = Ki′) thus affecting the binding of substrate in the active site of enzyme and interacting with its allosteric peripheral anionic site (PAS). Interaction in this site causes conformational changes of the enzyme, including its active site. Km remained unchanged, while Vmax was reduced at higher concentration of K1383.
The kinetic study of AChE inhibition was performed using Ellman’s method. […] The type of inhibition and corresponding inhibition constant (Ki and Ki′) were determined by the nonlinear regression analysis of the substrate velocity curves at different concentrations of tested compounds. Results for each type model of inhibition (competitive, uncompetitive, mixed and mixed-non-competitive) were compared with sum-of-squares F-test. Lineweaver-Burk (double-reciprocal) plot, used for visualization of the enzyme-inhibitor interactions, was calculated using weighted least-squares regression. All calculations were performed using the GraphPad Prism software.
Figure 2 Steady-state inhibition of AChE hydrolysis of substrate acetylthiocholine (ATCh) by compound K1383 at different concentrations. […]

| Compound | IC50 ([1]; AChE isolated from rat cortex homogenate, read-out: AChE IC50 ± SEM) [µM] | SI (BChE IC50/AChE IC50) ([1]; rat AChE vs rat BChE) | IC50 [2] [µM] | ORAC-FL antioxidant power [3] | EC50 [4] [µM] | IC50 [5] [µM] | Prediction of BBB penetration [6] | Papp at 100 μM [6] [×10⁻⁶ cm/s] | IC50 [7] [µM] | IC50 [8] [µM] | type of inhibition ([9]; nonlinear regression analysis, p < 0.05) | Ki ([9]; substrate ATCh 0.156–1.250 mM, Ki = Ki′) [µM] | BBB crossing prediction [6] | cytotoxicity compared to reference 6-Cl-THA [5] |
| --- | --- | --- | --- | --- | --- | --- | --- | --- | --- | --- | --- | --- | --- | --- |
| CCN(CC)c1cccc(-c2cc(=O)c3c(O)c(OC)c(OC)cc3o2)c1 [Compound 1] | 0.57 ± 0.02 | 39.7 | 22.6 ± 0.22 | 1.3 ± 0.02 ^a µM of Trolox/µM of tested compound |  |  |  |  |  |  |  |  |  |  |
| Nc1c2c(nc3cc(Cl)ccc13)CCCC2 [Compound 6-Cl-THA, 6-Chlorotacrine, reference compound] |  |  |  |  | > 100 | 7.13 ± 0.11 | CNS+ (high BBB permeation predicted, Pe × 10^−6 cm/s > 4.0) | 5 ± 0.45 |  |  |  |  |  |  |
| COc1cc2oc(-c3ccc(NCCNc4c5c(nc6cc(Cl)ccc46)CCCC5)cc3)cc(=O)c2c(OC)c1OC [Compound K1383] |  |  |  |  | > 500 | 3.4 ± 1.05 | CNS± (BBB permeation uncertain, Pe × 10^−6 cm/s from 4.0 to 2.0) | 2.88 ± 0.1 | 0.00163 ± 0.00013 | 1.21 ± 0.07 | mixed, non-competitive | 0.00275 ± 0.00032 |  |  |
| COc1cc2oc(-c3ccc(NCCCNc4c5c(nc6cc(Cl)ccc46)CCCC5)cc3)cc(=O)c2c(OC)c1OC [Compound K1384] |  |  |  |  | > 500 | 5.77 ± 1.68 | CNS+ (high BBB permeation predicted, Pe × 10^−6 cm/s > 4.0) | 5.01 ± 2.2 | 0.0019 ± 0.0001 | 0.174 ± 0.007 |  |  | potential to cross the BBB |  |
| COc1cc2oc(-c3ccc(NCCCCNc4c5c(nc6cc(Cl)ccc46)CCCC5)cc3)cc(=O)c2c(OC)c1OC [Compound K1385] |  |  |  |  | > 500 | 3.29 ± 0.82 | CNS± (BBB permeation uncertain, Pe × 10^−6 cm/s from 4.0 to 2.0) | 2.6 ± 0.55 | 0.00515 ± 0.00018 | 8.69 ± 0.04 |  |  |  |  |
| COc1cc2oc(-c3ccc(NCCCCCNc4c5c(nc6cc(Cl)ccc46)CCCC5)cc3)cc(=O)c2c(OC)c1OC [Compound K1386] |  |  |  |  | > 500 | 3.89 ± 1.08 | CNS± (BBB permeation uncertain, Pe × 10^−6 cm/s from 4.0 to 2.0) | 3.93 ± 1 | 0.0267 ± 0.001 | 0.934 ± 0.045 |  |  |  |  |
| COc1cc2oc(-c3ccc(NCCCCCCNc4c5c(nc6cc(Cl)ccc46)CCCC5)cc3)cc(=O)c2c(OC)c1OC [Compound K1387] |  |  |  |  | > 500 | 7.76 ± 1.47 | CNS± (BBB permeation uncertain, Pe × 10^−6 cm/s from 4.0 to 2.0) | 3.31 ± 0.38 | 0.031 ± 0.0015 | 6.46 ± 0.3 |  |  |  |  |
| COc1cc2oc(-c3ccc(NCCCCCCCNc4c5c(nc6cc(Cl)ccc46)CCCC5)cc3)cc(=O)c2c(OC)c1OC [Compound K1388] |  |  |  |  | > 500 | > 32 | CNS+ (high BBB permeation predicted, Pe × 10^−6 cm/s > 4.0) | 4.92 ± 0.02 | 0.0241 ± 0.0009 | 2.81 ± 0.11 |  |  | potential to cross the BBB | slightly suppressed cytotoxicity |
| COc1cc2oc(-c3ccc(NCCCCCCCCNc4c5c(nc6cc(Cl)ccc46)CCCC5)cc3)cc(=O)c2c(OC)c1OC [Compound K1389] |  |  |  |  | > 500 | > 16 | CNS+ (high BBB permeation predicted, Pe × 10^−6 cm/s > 4.0) | 8.1 ± 3.1 | 0.0223 ± 0.0007 | 2.21 ± 0.13 |  |  | potential to cross the BBB | slightly suppressed cytotoxicity |
| Cc1c(C)c2c(c(C)c1O)CCC(C)(C(=O)O)O2 (stereo not shown) [trolox, Trolox, reference compound] |  |  |  |  | 16.2 ± 0.42 |  |  |  |  |  |  |  |  |  |
